Where two headings read alike, the source gives them in different places.
Columns and labels:
[1] = Stability of the analytes in rat plasma QC samples under storage conditions; format: in vitro ADME; details: for Freeze-thaw cycles Remain: three freeze-thaw cycles
Protocol: Quality control (QC) samples containing geniposidic acid, geniposide, genipin-1-β-gentiobioside, genipin, and crocetin were prepared at LLOQ (10 ng/mL), low (30 ng/mL), medium (300 ng/mL), and high concentrations (3000 ng/mL), spiking with appropriate standard solutions with blank plasma to establish calibration curve and method validation. The samples were prepared by the same procedures for plasma samples as described below. The stability of 5 components in the plasma was obtained by evaluating QC samples at four concentration levels with three replicates in different conditions. The QC samples were kept at room temperature for 12 h to determine the short-term stability. Freeze-thaws stability was tested after three freeze-thaw (−80°C at room temperature) on three consecutive days. Long-term stability was tested by evaluating QC samples stored at −80°C for one month. The stability of the five components in rat plasma was determined by evaluating QC samples stored at different temperature and timing conditions. All the components were stable in the autosampler for 24 h, after three freeze-thaw cycles and at a month at −80°C.

[2] = Pharmacokinetics in rat plasma after oral administration of CGF, SGF, GCGF and GIGF extracts (LC-MS/MS); details: for AUC(0–t24) ratio relative to CGF / Cmax / Tmax / T 1/2 / C max / T max: rat plasma; for AUC(0–t24) ratio relative to CGF: oral; for Cmax / half-life / Tmax: male, Sprague-Dawley, rat, plasma, po, 0.75 mL/kg; for Cmax: C max; for Cmax / half-life / Tmax / T 1/2 / C max / T max: n = 6, mean ± SD; for half-life: T 1/2, rat plasma; for Tmax: T max
Description: (§1) The LC-ESI-MS/MS system is composed of an Agilent 1200 series LC system (Agilent Technologies, USA) including a binary pump, a vacuum degasser unit, an autosampler, and an API 3200 triple quadrupole mass Spectrometer with an ESI source (Concord, Ontario, Canada). Data was acquired by Analyst 1.4.2 software (AB MDS Sciex).
(§2) The Agilent Eclipse plus C18 (4.6 × 100 mm, 1.8 μm) column with a guard column was used to separate multiple ingredients. The mobile phases were methanol (A) and water (B) with a gradient elution of 3–36% A at 0–3 min, 36–36% A at 3–15 min, 36–97% A at 15–16 min, and 97–97% A at 16–26 min, then back from 97% to 3% balanced for 10 min. The flow rate was set at 0.3 mL/min and the column temperature was set at 30°C. The injection volume was 5 μL.
(§3) The detection was operated in Multiple Reaction Monitoring (MRM) mode. The source parameters were as follows: curtain gas, collision gas, ion spray voltage, temperature, ion source gas 1, and ion source gas 2 were set at 20 psi, 5 psi, 5500 V, 450°C, 40 psi, and 40 psi, respectively. Nitrogen was the only gas used in the experiment.
(§4) A total of 24 male Sprague-Dawley rats (weight: 220–250 g) were obtained from animal center of Tianjin University of Traditional Chinese Medicine (Tianjin, China). Those rats were randomly divided into four groups (CGF, SGF, GCGF, and GIGF groups) and were housed in an environmentally controlled room (temperature 20–25°C, humidity 60 ± 5%). The rats were allowed free accessibility to food and water in the first week. They were fasted for 12 h before the experiment with water taken freely. The animal experiments were according to the Guidelines for the Care and Use of Laboratory Animals and were approved by the Animal Ethics Committee of Tianjin University of Traditional Chinese Medicine. The rats were randomly divided into four groups. Six rats in each group were separately given single dose of 0.75 mL/kg (0.9 g·kg herbal medicine) extract solution of four kinds of GFs vial oral administration. Blood samples (about 300 μL) were collected at 0, 0.08, 0.25, 0.5, 1, 2, 4, 6, 8, 10, 12, 14, and 24 h. The blood samples were collected in heparinized tubes and immediately centrifuged at 6000 rpm for 10 min at 4°C. The plasma samples were stored at −80°C until analysis.
(§5) The plasma sample (100 μL) was spiked with 20 μL IS working solution and 10 μL formic acid in an Eppendorf tube. Samples were vortex for 30 s, and then 1 mL acetonitrile was added to precipitate protein. Then samples were vortexed for 2 min and the tubes were centrifuged at 14000 rpm for 10 min. The upper organic phase was transferred into a new tube and evaporated to dryness under a flow of nitrogen gas. The residue was reconstituted with 50% methanol 100 μL. After centrifuging at 14000 rpm for 10 min, the supernatant was transferred into an autosampler vial and a volume of 5 μL was injected into the HPLC-ESI-MS/MS for analysis.
(§6) The pharmacokinetic parameters were calculated using a Drug and Statistics 1.0 (DAS 1.0) software (Medical College of Wannan, China). The pharmacokinetic parameters included time of maximum concentration (Tmax), maximum plasma concentration (Cmax), elimination half-life (T1/2), and area under concentrations curve (AUC0–t and AUC0–∞). All values were expressed as mean ± SD. A paired t test was used to test the difference among these groups.

[3] = in vivo, po
Description: as §1, §2, §3, §4, §5, §6

[4] = single oral dose of CGF extract 0.75 mL/kg
[5] = single oral dose of GCGF extract 0.75 mL/kg
[6] = single oral dose of GIGF extract 0.75 mL/kg
[7] = single oral dose of SGF extract 0.75 mL/kg

Structure (SMILES) | At −80°C for a month Remain ([1]; 10 ng/mL) [%] | Autosampler for 24 h Remain ([1]; 10 ng/mL) [%] | Freeze-thaw cycles Remain ([1]; 10 ng/mL) [%] | At −80°C for a month Remain ([1]; 30 ng/mL) [%] | Autosampler for 24 h Remain ([1]; 30 ng/mL) [%] | Freeze-thaw cycles Remain ([1]; 30 ng/mL) [%] | At −80°C for a month Remain ([1]; 300 ng/mL) [%] | Autosampler for 24 h Remain ([1]; 300 ng/mL) [%] | Freeze-thaw cycles Remain ([1]; 300 ng/mL) [%] | At −80°C for a month Remain ([1]; 3000 ng/mL) [%] | Autosampler for 24 h Remain ([1]; 3000 ng/mL) [%] | Freeze-thaw cycles Remain ([1]; 3000 ng/mL) [%] | Cmax [2, 4] [ng/mL] | Cmax [2, 5] [ng/mL] | Cmax [2, 7] [ng/mL] | half-life [2, 4] [h] | half-life [2, 7] [h] | Tmax [2, 4] [h] | Tmax [2, 5] [h] | Tmax [2, 7] [h] | further results
O=C(O)C1=CO[C@@H](O[C@@H]2O[C@H](CO)[C@@H](O)[C@H](O)[C@H]2O)[C@@H]2C(CO)=CC[C@H]12 [Geniposidic acid] | 107 | 94.7 | 96.3 | 98.0 | 96.4 | 101 | 106 | 96.4 | 107 | 99.9 | 96.7 | 108 | 1020 ± 450 | 670 ± 432 | 398 ± 108 | 2.52 ± 0.64 | 2.93 ± 3.45 | 3.33 ± 1.63 | 3.33 ± 3.43 | 1.78 ± 0.44 | AUC(0–t24) ratio relative to CGF ([2]; GCGF vs CGF (CGF = 1)): 0.39; AUC(0–t24) ratio relative to CGF ([2]; GIGF vs CGF (CGF = 1)): 0.15; AUC(0–t24) ratio relative to CGF ([2]; SGF vs CGF (CGF = 1)): 0.22; Cmax [2, 6]: 272 ± 164 ng/mL; half-life [2, 5]: 1.72 ± 0.69 h; half-life [2, 6]: 1.5 ± 0.42 h; Tmax [2, 6]: 2.4 ± 1.26 h
COC(=O)C1=CO[C@@H](O[C@@H]2O[C@H](CO)[C@@H](O)[C@H](O)[C@H]2O)[C@@H]2C(CO)=CC[C@H]12 [Geniposide] | 99.2 | 102 | 97.5 | 98.4 | 95.1 | 92.8 | 94.8 | 96.3 | 93.1 | 92.8 | 91.6 | 95.0 | 1070 ± 598 | 581 ± 241 | 455 ± 160 | 3.21 ± 2.31 | 1.61 ± 0.63 | 1.54 ± 1.3 | 0.86 ± 0.13 | 0.89 ± 0.72 | Cmax [2, 6]: 212 ± 109 ng/mL; half-life [2, 6]: 1.08 ± 0.45 h; Tmax [2, 6]: 1.3 ± 0.48 h; T 1/2 [2, 5]: 1.44 ± 0.53^∗ h
CC(/C=C/C=C(\C)C(=O)O[C@@H]1O[C@H](CO[C@@H]2O[C@H](CO)[C@@H](O)[C@H](O)[C@H]2O)[C@@H](O)[C@H](O)[C@H]1O)=C\C=C\C=C(C)\C=C\C=C(/C)C(=O)O[C@@H]1O[C@H](CO[C@@H]2O[C@H](CO)[C@@H](O)[C@H](O)[C@H]2O)[C@@H](O)[C@H](O)[C@H]1O [crocin I] | – | – | – | – | – | – | – | – | – | – | – | – | – | – | – | – | – | – | – | – | Detection in rat plasma [3]: not detected
CC(/C=C/C=C(\C)C(=O)O)=C\C=C\C=C(C)\C=C\C=C(/C)C(=O)O [Crocetin] | 98.4 | 97.9 | 102 | 101 | 99.9 | 95.3 | 105 | 96.3 | 98.6 | 103 | 98.9 | 106 | 165 ± 52.9 | 163 ± 76.4 | 153 ± 81.9 | 41.6 ± 57.6 | 56.2 ± 43 | 7.3 ± 3.93 | 6.43 ± 5.02 | 6.61 ± 4.05 | Cmax [2, 6]: 91.2 ± 35.6 ng/mL; half-life [2, 5]: 12.8 ± 6.64 h; half-life [2, 6]: 31.8 ± 29.3 h; Tmax [2, 6]: 1.29 ± 2.31 h
CC(/C=C/C=C(\C)C(=O)O[C@@H]1O[C@H](CO)[C@@H](O)[C@H](O)[C@H]1O)=C\C=C\C=C(C)\C=C\C=C(/C)C(=O)O[C@@H]1O[C@H](CO[C@@H]2O[C@H](CO)[C@@H](O)[C@H](O)[C@H]2O)[C@@H](O)[C@H](O)[C@H]1O [crocin II] | – | – | – | – | – | – | – | – | – | – | – | – | – | – | – | – | – | – | – | – | Detection in rat plasma ([2]; plasma samples after oral administration of GF extracts): not detected
COC(=O)C1=CO[C@@H](O[C@@H]2O[C@H](CO[C@@H]3O[C@H](CO)[C@@H](O)[C@H](O)[C@H]3O)[C@@H](O)[C@H](O)[C@H]2O)[C@@H]2C(CO)=CC[C@H]12 [Genipin-1-β-gentiobioside] | 95.8 | 99.3 | 104 | 96.3 | 100 | 105 | 95.1 | 101 | 101 | 95.1 | 90.7 | 103 | – | – | – | – | – | – | – | – | C max [2, 4]: 149.90 ± 132.07 ng/mL; T 1/2 [2, 4]: 0.72 ± 0.25 h; T max [2, 4]: 0.55 ± 0.33 h; C max [2, 5]: 102.92 ± 58.15 ng/mL; T 1/2 [2, 5]: 0.78 ± 0.32 h; T max [2, 5]: 0.78 ± 0.20 h; C max [2, 6]: 62.94 ± 16.81 ng/mL; T 1/2 [2, 6]: 0.91 ± 0.36 h; T max [2, 6]: 1.05 ± 0.37^∗# h; C max [2, 7]: 79.08 ± 39.47 ng/mL; T 1/2 [2, 7]: 0.61 ± 0.18 h; T max [2, 7]: 0.61 ± 0.31 h
COC(=O)C1=CO[C@@H](O)[C@@H]2C(CO)=CC[C@H]12 [Genipin] | 108 | 95.4 | – | 103 | 104 | 95.3 | 105 | 90.6 | 95.9 | 101 | 92.6 | 100 | 76.4 ± 40.9 | 68.5 ± 19.4 | 98 ± 41.8 | 3.42 ± 1.94 | 1.39 ± 0.88 | 1.11 ± 0.4 | 1.1 ± 0.52 | 1 ± 0.55 | Detection in rat plasma ([2]; after administration of the GIGF extract, LLOQ 10 ng/mL): not detected; half-life [2, 5]: 1.39 ± 0.98 h
